Measurements as given in BindingDB's records for doi:10.7270/Q2D798VP (Broad Institute, 2009).

These molecules were tested against T1, Zinc finger protein mex-5 (Caenorhabditis elegans, UniProt Q9XUB2) (assay: MEX-5/TCR-2 RNA interaction inhibitors, dose response, biochemical, C. elegans, fluorescence polarization (AID 1960)).
T1 sequence (Q9XUB2 whole entry): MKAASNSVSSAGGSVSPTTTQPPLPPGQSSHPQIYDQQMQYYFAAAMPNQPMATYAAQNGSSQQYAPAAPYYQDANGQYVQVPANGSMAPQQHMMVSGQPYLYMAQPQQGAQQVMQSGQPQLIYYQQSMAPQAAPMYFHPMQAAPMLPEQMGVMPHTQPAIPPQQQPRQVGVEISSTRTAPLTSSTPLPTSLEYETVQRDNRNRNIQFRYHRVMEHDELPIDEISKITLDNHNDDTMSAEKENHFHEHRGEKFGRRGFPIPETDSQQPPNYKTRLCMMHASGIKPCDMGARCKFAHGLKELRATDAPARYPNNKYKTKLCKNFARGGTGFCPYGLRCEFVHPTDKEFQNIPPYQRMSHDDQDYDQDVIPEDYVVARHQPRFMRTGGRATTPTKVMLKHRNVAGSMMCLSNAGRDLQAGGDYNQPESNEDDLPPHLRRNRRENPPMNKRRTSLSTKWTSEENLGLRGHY

For `COc1cc(C2C3CN(C)CCC3=C(C#N)C(=N)C2(C#N)C#N)ccc1OC(C)C` (configuration not stated) [MLS000034945], which EC50 is on record?
The EC50 was 31.3 µM.

Which EC50 does the source give for `O=C1Nc2ccccc2C1=NNc1ccccc1` [3-(phenylhydrazo)-2-indolone] here?
The EC50 was 18.3 µM.

Which EC50 does the source give for `CCOc1cc(C2C(C(C)=O)=C(C)OC(=N)C2C#N)cc(Br)c1O` (configuration not stated) [2-azanyl-4-(3-bromanyl-5-ethoxy-4-oxidanyl-phenyl)-5-ethanoyl-6-methyl-4H-pyran-3-carbonitrile] here?
Its EC50 is 12.3 µM.

How did the EC50 turn out when `O=C1N=C(N2C=CC(c3ccncc3)C=C2)C(=CN=NC(=O)c2ccccc2O)S1` [SMR000646350] was run?
Its EC50 is 10.7 µM.

`COc1ccc(OC)c(NC=C2C(=O)NC(=S)N(Cc3ccccc3)C2=O)c1` was tested. Which EC50 did it give?
Its EC50 is > 300 µM.

With `CC1(C)c2[nH]c3ccccc3c2Cc2c(O)n(-c3ccc(F)cc3F)c(=O)n21` [MLS001065879] as the molecule, how does the EC50 read?
The EC50 was 46.8 µM.

Which EC50 does the source give for `O=C1NC(=S)N(c2ccccc2)C(=O)C1=Cc1ccco1` [(5E)-5-(2-furanylmethylidene)-1-phenyl-2-sulfanylidene-1,3-diazinane-4,6-dione] here?
Its EC50 is 254 µM.

For `Clc1ccc(C2=Nc3ncnn3C(c3ccco3)C2)cc1` (configuration not stated), which EC50 is on record?
Its EC50 is 3.36 µM.

How did the EC50 turn out when `CCCCOC(=O)c1ccc(NN=C2C(=O)NC(=O)C(C#N)=C2C)cc1` [MLS000778379] was run?
Its EC50 is > 300 µM.

With `O=C1C=CC(/C=C/c2nc(O)c([N+](=O)[O-])c(=O)[nH]2)C=C1O` (configuration not stated) [SMR000524347] as the molecule, how does the EC50 read?
Its EC50 is 179 µM.

`CC1(C)CC(=O)C2=C(C1)OC(=N)C(C#N)C2c1cccc(OC(=O)c2ccco2)c1` (configuration not stated) [2-furancarboxylic acid [3-(2-amino-3-cyano-7,7-dimethyl-5-oxo-6,8-dihydro-4H-1-benzopyran-4-yl)phenyl] ester] was tested. Which EC50 did it give?
The EC50 was > 300 µM.

How did the EC50 turn out when `O=C(Cc1nc2cc([N+](=O)[O-])ccc2[nH]c1=O)c1ccccc1` [6-Nitro-3-(2-oxo-2-phenyl-ethylidene)-3,4-dihydro-1H-quinoxalin-2-one] was run?
The EC50 was > 300 µM.

How did the EC50 turn out when `Cc1nnc(N2C(=O)C(=O)C(C(=O)c3ccco3)C2c2ccc(F)cc2)s1` (configuration not stated) [2-(4-fluorophenyl)-3-(furan-2-carbonyl)-4-hydroxy-1-(5-methyl-1,3,4-thiadiazol-2-yl)-2H-pyrrol-5-one] was run?
The EC50 was 32.9 µM.

How did the EC50 turn out when `C=CCOc1cccc(C2C(C(=O)c3ccc(C)o3)C(=O)C(=O)N2c2nccs2)c1` (configuration not stated) [3-(5-methylfuran-2-yl)carbonyl-4-oxidanyl-2-(3-prop-2-enoxyphenyl)-1-(1,3-thiazol-2-yl)-2H-pyrrol-5-one] was run?
Its EC50 is 0.851 µM.

How did the EC50 turn out when `COc1ccc(N2C(=O)NC(=O)C(=Cc3c[nH]c4ccc(Br)cc34)C2=O)c(OC)c1` [(5E)-5-[(5-bromo-1H-indol-3-yl)methylene]-1-(2,4-dimethoxyphenyl)pyrimidine-2,4,6(1H,3H,5H)-trione] was run?
The EC50 was > 300 µM.

With `CCOC(=O)C1C(=O)C(=Cc2cn(CC(=O)N3CCCC3)c3ccccc23)S/C1=N\c1ccccc1` (configuration not stated) [(5Z)-2-anilino-4-keto-5-[[1-(2-keto-2-pyrrolidino-ethyl)indol-3-yl]methylene]thiophene-3-carboxylic acid ethyl ester] as the molecule, how does the EC50 read?
The EC50 was 26.2 µM.

`C=CCSc1nnc(N2C(=O)C(=O)C(C(=O)c3ccco3)C2c2ccc(F)cc2)s1` (configuration not stated) [1-[5-(allylthio)-1,3,4-thiadiazol-2-yl]-5-(4-fluorophenyl)-4-(2-furoyl)-3-hydroxy-3-pyrrolin-2-one] was tested. Which EC50 did it give?
The EC50 was 87.6 µM.

With `CCCCOc1cccc(C2C(C(=O)c3ccc(C)o3)C(=O)C(=O)N2c2nnc(C)s2)c1` (configuration not stated) [2-(3-butoxyphenyl)-3-(5-methylfuran-2-yl)carbonyl-1-(5-methyl-1,3,4-thiadiazol-2-yl)-4-oxidanyl-2H-pyrrol-5-one] as the molecule, how does the EC50 read?
Its EC50 is 77.4 µM.

`Cc1cc(O)c(C(C)C)cc1Nc1csc(=O)[nH]1` [SMR000034713] was tested. Which EC50 did it give?
Its EC50 is 34.6 µM.

`CCOC(=O)C1=C(C)N=c2sc(=Cc3ccc(OCC(=O)O)cc3)c(=O)n2C1c1ccc(OC)cc1OC` (configuration not stated) [MLS001179101] was tested. Which EC50 did it give?
Its EC50 is 60.9 µM.

`COc1ccc(C2C(C(=O)c3cccs3)C(=O)C(=O)N2c2nncs2)cc1` (configuration not stated) was tested. Which EC50 did it give?
Its EC50 is 0.1 µM.

For `COc1ccc(C2C3=C(CC(C)(C)CC3=O)OC(=N)C2C#N)cc1OC` (configuration not stated) [2-amino-4-(3,4-dimethoxyphenyl)-5-keto-7,7-dimethyl-6,8-dihydro-4H-chromene-3-carbonitrile], which EC50 is on record?
The EC50 was > 300 µM.

Which EC50 does the source give for `O=C1Nc2ccccc2/C1=N/NC(=S)Nc1ccc(O)cc1` [1-(4-hydroxyphenyl)-3-[(2-oxidanylideneindol-3-yl)amino]thiourea] here?
Its EC50 is 3.98 µM.

How did the EC50 turn out when `O=[N+]([O-])c1cc/c(=N\c2ccccc2O)c2no[nH]c1-2` [MLS001206694] was run?
Its EC50 is 28.2 µM.

With `CC1(C)CC(=O)C2=C(C1)OC(=N)C(C#N)C2c1ccccc1OC(=O)N1CCOCC1` (configuration not stated) [2-(2-amino-3-cyano-7,7-dimethyl-5-oxo-5,6,7,8-tetrahydro-4H-chromen-4-yl)phenyl morpholine-4-carboxylate] as the molecule, how does the EC50 read?
Its EC50 is > 300 µM.

`Cc1nnc(N2C(=O)C(=O)C(C(=O)c3ccco3)C2c2ccc(C(C)(C)C)cc2)s1` (configuration not stated) [2-(4-tert-butylphenyl)-3-(furan-2-carbonyl)-4-hydroxy-1-(5-methyl-1,3,4-thiadiazol-2-yl)-2H-pyrrol-5-one] was tested. Which EC50 did it give?
Its EC50 is 7.86 µM.

Which EC50 does the source give for `CCOC(=O)c1c(NC=C2C(=O)NC(=S)NC2=O)sc(C)c1C` [ethyl 2-[[4,6-bis(oxidanylidene)-2-sulfanylidene-1,3-diazinan-5-yl]methylideneamino]-4,5-dimethyl-thiophene-3-carboxylate] here?
The EC50 was > 300 µM.

Which EC50 does the source give for `CC(C)c1ccc(C2C(C#N)=C3Sc4ccccc4N3C(=N)C2C#N)cc1` (configuration not stated) [1-amino-3-(4-propan-2-ylphenyl)-3H-pyrido[2,1-b][1,3]benzothiazole-2,4-dicarbonitrile] here?
The EC50 was 61.3 µM.

With `N#CC1C(=N)OC2=C(C(=O)CCC2)C1c1ccccc1` (configuration not stated) [2-amino-5-keto-4-phenyl-4,6,7,8-tetrahydrochromene-3-carbonitrile] as the molecule, how does the EC50 read?
Its EC50 is > 300 µM.

How did the EC50 turn out when `COc1ccc(N=Cc2cc3c(cc2O)OC(=N)C(C#N)C3c2ccccc2)cc1` (configuration not stated) [(6E)-2-amino-6-[(4-methoxyanilino)methylidene]-7-oxo-4-phenyl-4H-1-benzopyran-3-carbonitrile] was run?
Its EC50 is > 300 µM.

How did the EC50 turn out when `O=CC(C=Nc1ccccn1)c1nc2ccccc2o1` (configuration not stated) [2-Benzooxazol-2-yl-3-(pyridin-2-ylamino)-propenal] was run?
Its EC50 is > 300 µM.

`COc1cccc(C2C3CN(C)CCC3=C(C#N)C(=N)C2(C#N)C#N)c1OC` (configuration not stated) [6-Amino-8-(2,3-dimethoxy-phenyl)-2-methyl-2,3,8,8a-tetrahydro-1H-isoquinoline-5,7,7-tricarbonitrile] was tested. Which EC50 did it give?
The EC50 was 8.49 µM.

Which EC50 does the source give for `N#CC1C(=N)OC2=C(C(=O)CCC2)[C@]12C(=O)N(CC(N)=O)c1ccccc12` (stereo partly drawn) [2-[(4R)-2-amino-3-cyano-2',5-diketo-spiro[7,8-dihydro-6H-chromene-4,3'-indoline]-1'-yl]acetamide] here?
The EC50 was > 300 µM.

`COc1cc(OC)c(C2C3=C(CC(C)CC3=O)OC(=N)C2C#N)cc1OC` (configuration not stated) [2-amino-4-asaryl-5-keto-7-methyl-4,6,7,8-tetrahydrochromene-3-carbonitrile] was tested. Which EC50 did it give?
The EC50 was > 300 µM.

Which EC50 does the source give for `Oc1ccc(C=Nn2c(O)csc2=S)c(O)c1O` [3-[[(E)-[2,3-bis(oxidanyl)-4-oxidanylidene-cyclohexa-2,5-dien-1-ylidene]methyl]amino]-2-sulfanylidene-1,3-thiazolidin-4-one] here?
The EC50 was 0.668 µM.

How did the EC50 turn out when `COc1cccc(CN2C(=O)C3(C4=C(CCCC4=O)OC(=N)C3C#N)c3ccccc32)c1` (configuration not stated) [2-amino-1'-(3-methoxybenzyl)-2',5-dioxo-1',2',5,6,7,8-hexahydrospiro[chromene-4,3'-indole]-3-carbonitrile] was run?
The EC50 was > 300 µM.

Which EC50 does the source give for `O=C(CC=Nc1ccc([N+](=O)[O-])cc1)c1ccc(Br)cc1` [(E)-1-(4-bromophenyl)-3-(4-nitroanilino)-2-propen-1-one] here?
The EC50 was > 300 µM.
